These compounds were tested against T1, human TLR7 (Homo sapiens, UniProt Q9NYK1) (assay: HEK293-Blue-hTLR-7 cells assay (SEAP reporter, R848 stimulation)). Settings: HEK293-Blue-hTLR7 cells, R848, 20 hrs; read-out: HEK/hTLR7 IC50.
T1 construct: host or cells: HEK293 (HEK-Blue hTLR7)
T1 sequence (Q9NYK1 27-1049): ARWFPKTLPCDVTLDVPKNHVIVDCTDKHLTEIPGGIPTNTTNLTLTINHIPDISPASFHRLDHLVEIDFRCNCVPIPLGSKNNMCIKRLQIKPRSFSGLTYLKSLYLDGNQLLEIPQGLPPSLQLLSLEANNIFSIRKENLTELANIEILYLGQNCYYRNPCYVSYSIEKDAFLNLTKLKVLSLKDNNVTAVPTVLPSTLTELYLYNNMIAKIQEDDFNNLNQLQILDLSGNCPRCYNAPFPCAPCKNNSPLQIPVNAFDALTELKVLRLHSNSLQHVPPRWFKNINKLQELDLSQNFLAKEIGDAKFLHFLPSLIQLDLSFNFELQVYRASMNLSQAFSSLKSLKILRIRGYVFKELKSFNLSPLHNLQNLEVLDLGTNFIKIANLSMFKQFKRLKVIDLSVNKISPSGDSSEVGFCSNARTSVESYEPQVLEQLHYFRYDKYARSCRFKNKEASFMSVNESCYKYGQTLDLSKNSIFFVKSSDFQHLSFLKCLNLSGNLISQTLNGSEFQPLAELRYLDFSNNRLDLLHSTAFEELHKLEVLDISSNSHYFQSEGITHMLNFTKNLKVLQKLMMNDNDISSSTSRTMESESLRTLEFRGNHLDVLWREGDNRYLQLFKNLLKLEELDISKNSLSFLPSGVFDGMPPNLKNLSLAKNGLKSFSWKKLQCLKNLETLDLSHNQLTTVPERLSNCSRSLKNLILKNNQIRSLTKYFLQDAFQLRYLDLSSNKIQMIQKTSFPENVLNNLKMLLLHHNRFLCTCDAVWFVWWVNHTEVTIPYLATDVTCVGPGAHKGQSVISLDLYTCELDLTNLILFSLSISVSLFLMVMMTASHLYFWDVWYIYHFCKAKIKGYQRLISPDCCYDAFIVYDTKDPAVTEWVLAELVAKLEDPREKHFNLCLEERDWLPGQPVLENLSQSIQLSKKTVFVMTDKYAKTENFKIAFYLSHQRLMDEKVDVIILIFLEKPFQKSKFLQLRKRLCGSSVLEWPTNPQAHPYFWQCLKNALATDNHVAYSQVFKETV
Type: cell-based
Outline: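 HEK293-Blue-hTLR7 cells (NF-κB/AP-1-driven SEAP reporter) were stimulated with R848 alongside serially diluted compound at 1% final DMSO for 20 h at 37 °C. Supernatant SEAP was then developed with QUANTI-Blue for 2 h at 37 °C and absorbance read at 620–655 nm; antagonism is measured as reduced reporter signal.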

Question: `Cc1cc(N2CCN(C[C@H]3CN(c4ccc(C#N)c5ncccc45)C[C@@H](C)O3)CC2)nc(N2C[C@H](N)C[C@H](F)C2)n1` (relative stereo) [Example 74, 5-[(2R,6S)-2-methyl-6-[[4-[6-methyl-2-[cis-3-amino-5-fluoro-1-piperidyl]pyrimidin-4-yl]piperazin-1-yl]methyl]morpholin-4-yl]quinoline-8-carbonitrile] was tested. Which IC50 did it give?
Answer: 24 nM

Question: How did the IC50 turn out when `Cc1cc(N2CCN(C[C@H]3CN(c4ccc(C#N)c5ncccc45)C[C@@H](C)O3)CC2)nc(N2C[C@H](N)C[C@@H](F)C2)n1` (relative stereo) [Example 75, 5-[(2R,6S)-2-methyl-6-[[4-[6-methyl-2-[trans-3-amino-5-fluoro-1-piperidyl]pyrimidin-4-yl]piperazin-1-yl]methyl]morpholin-4-yl]quinoline-8-carbonitrile] was run?
Answer: 25 nM

Question: With `CO[C@H]1CN(c2nc(C)cc(N3CCN(C[C@H]4CN(c5ccc(C#N)c6ncccc56)C[C@@H](C)O4)CC3)n2)C[C@@H]1N` (single isomer, unassigned) [Example 69A] as the compound, how does the IC50 read?
Answer: 11 nM

Question: `CO[C@@H]1CN(c2nc(C)cc(N3CCN(C[C@H]4CN(c5ccc(C#N)c6ncccc56)C[C@@H](C)O4)CC3)n2)C[C@H]1N` (single isomer, unassigned) [Example 69B] was tested. Which IC50 did it give?
Answer: 7 nM

Question: For `Cc1cc(N2CCN(C[C@H]3CN(c4ccc(C#N)c5ncccc45)C[C@@H](C)O3)CC2)nc(N2CC[C@@H](F)C(N)C2)n1` (single isomer, unassigned) [Example 84], which IC50 is on record?
Answer: 10 nM

Question: `COC1CN(c2nc(C)cc(N3CCN(C[C@H]4CN(c5ccc(C#N)c6ncccc56)C[C@@H](C)O4)CC3)n2)CC1N` (single isomer, unassigned) [Example 88] was tested. Which IC50 did it give?
Answer: 21 nM

Question: How did the IC50 turn out when `COC1CNCC1Nc1nc(C)cc(N2CCN(C[C@H]3CN(c4ccc(C#N)c5ncccc45)C[C@@H](C)O3)CC2)n1` (stereo in doubt) [Example 70, 5-[(2S,6R)-2-[[4-[2-[[(3R,4R)-4-methoxypyrrolidin-3-yl]amino]-6-methyl-pyrimidin-4-yl]piperazin-1-yl]methyl]-6-methyl-morpholin-4-yl]quinoline-8-carbonitrile] was run?
Answer: 70 nM

Question: Which IC50 does the source give for `Cc1cc(N2CCN(C[C@H]3CN(c4ccc(C#N)c5ncccc45)C[C@@H](C)O3)CC2)nc(NC2CNCC2F)n1` (stereo in doubt) [Example 73, 5-[(2S,6R)-2-[[4-[2-[[(3S,4R)-4-fluoropyrrolidin-3-yl]amino]-6-methyl-pyrimidin-4-yl]piperazin-1-yl]methyl]-6-methyl-morpholin-4-yl]quinoline-8-carbonitrile] here?
Answer: 49 nM

Question: For `Cc1cc(N2CCN(C[C@H]3CN(c4ccc(C#N)c5ncccc45)C[C@@H](C)O3)CC2)nc(N2CC[C@@H](N)C(F)C2)n1` (stereo in doubt) [Example 82, 5-[(2S,6R)-2-[[4-[2-[(3R,4R)-4-amino-3-fluoro-1-piperidyl]-6-methyl-pyrimidin-4-yl]piperazin-1-yl]methyl]-6-methyl-morpholin-4-yl]quinoline-8-carbonitrile], which IC50 is on record?
Answer: 29 nM

Question: `CO[C@H]1CN(c2nc(C)cc(N3CCN(C[C@H]4CN(c5ccc(C#N)c6ncccc56)C[C@@H](C)O4)CC3)n2)CCC1N` (stereo in doubt) [Example 90, 5-[(2S,6R)-2-[[4-[2-[(3S,4S)-4-amino-3-methoxy-1-piperidyl]-6-methyl-pyrimidin-4-yl]piperazin-1-yl]methyl]-6-methyl-morpholin-4-yl]quinoline-8-carbonitrile] was tested. Which IC50 did it give?
Answer: 21 nM

Question: For `Cc1cc(N2CCN(C[C@H]3CN(c4ccc(C#N)c5ncccc45)C[C@@H](C)O3)CC2)nc(N[C@@H]2CNC[C@@H]2F)n1` [Example 71, 5-[(2S,6R)-2-[[4-[2-[[(3R,4S)-4-fluoropyrrolidin-3-yl]amino]-6-methyl-pyrimidin-4-yl]piperazin-1-yl]methyl]-6-methyl-morpholin-4-yl]quinoline-8-carbonitrile], which IC50 is on record?
Answer: 45 nM

Question: For `CO[C@@H]1CN(c2nc(C)cc(N3CCN(C[C@H]4CN(c5ccc(C#N)c6ncccc56)C[C@@H](C)O4)CC3)n2)C[C@@H]1N` [Example 72, 5-[(2S,6R)-2-[[4-[2-[(3S,4R)-3-amino-4-methoxy-pyrrolidin-1-yl]-6-methyl-pyrimidin-4-yl]piperazin-1-yl]methyl]-6-methyl-morpholin-4-yl]quinoline-8-carbonitrile], which IC50 is on record?
Answer: 6 nM

Question: With `Cc1cc(N2CCN(C[C@H]3CN(c4ccc(C#N)c5ncccc45)C[C@@H](C)O3)CC2)nc(N[C@@H]2CNC[C@H]2F)n1` [Example 76, 5-[(2S,6R)-2-[[4-[2-[[(3R,4R)-4-fluoropyrrolidin-3-yl]amino]-6-methyl-pyrimidin-4-yl]piperazin-1-yl]methyl]-6-methyl-morpholin-4-yl]quinoline-8-carbonitrile] as the compound, how does the IC50 read?
Answer: 20 nM

Question: For `Cc1cc(N2CCN(C[C@H]3CN(c4ccc(C#N)c5ncccc45)C[C@@H](C)O3)CC2)nc(N2C[C@@H](N)C[C@@H](F)C2)n1` [Example 77, 5-[(2S,6R)-2-[[4-[2-[(3S,5R)-3-amino-5-fluoro-1-piperidyl]-6-methyl-pyrimidin-4-yl]piperazin-1-yl]methyl]-6-methyl-morpholin-4-yl]quinoline-8-carbonitrile], which IC50 is on record?
Answer: 26 nM

Question: With `Cc1cc(N2CCN(C[C@H]3CN(c4ccc(C#N)c5ncccc45)C[C@@H](C)O3)CC2)nc(N2CC[C@@H](N)[C@@H](F)C2)n1` [Example 78, 5-[(2S,6R)-2-[[4-[2-[(3S,4R)-4-amino-3-fluoro-1-piperidyl]-6-methyl-pyrimidin-4-yl]piperazin-1-yl]methyl]-6-methyl-morpholin-4-yl]quinoline-8-carbonitrile] as the compound, how does the IC50 read?
Answer: 20 nM

Question: With `Cc1cc(N2CCN(C[C@H]3CN(c4ccc(C#N)c5ncccc45)C[C@@H](C)O3)CC2)nc(N2C[C@@H](N)[C@H](F)C2)n1` [Example 79, 5-[(2S,6R)-2-[[4-[2-[(3R,4R)-3-amino-4-fluoro-pyrrolidin-1-yl]-6-methyl-pyrimidin-4-yl]piperazin-1-yl]methyl]-6-methyl-morpholin-4-yl]quinoline-8-carbonitrile] as the compound, how does the IC50 read?
Answer: 21 nM

Question: Which IC50 does the source give for `Cc1cc(N2CCN(C[C@H]3CN(c4ccc(C#N)c5ncccc45)C[C@@H](C)O3)CC2)nc(N2CC(N)CC(F)(F)C2)n1` (stereo partly drawn) [Example 80, 5-[(2S,6R)-2-[[4-[2-(5-amino-3,3-difluoro-1-piperidyl)-6-methyl-pyrimidin-4-yl]piperazin-1-yl]methyl]-6-methyl-morpholin-4-yl]quinoline-8-carbonitrile] here?
Answer: 107 nM

Question: `Cc1cc(N2CCN(C[C@H]3CN(c4ccc(C#N)c5ncccc45)C[C@@H](C)O3)CC2)nc(N2CCNC(C(C)(C)O)C2)n1` (stereo partly drawn) [Example 81, 5-[(2S,6R)-2-[[4-[2-[3-(1-hydroxy-1-methyl-ethyl)piperazin-1-yl]-6-methyl-pyrimidin-4-yl]piperazin-1-yl]methyl]-6-methyl-morpholin-4-yl]quinoline-8-carbonitrile] was tested. Which IC50 did it give?
Answer: 22 nM

Question: Which IC50 does the source give for `Cc1cc(N2CCN(C[C@H]3CN(c4ccc(C#N)c5ncccc45)C[C@@H](C)O3)CC2)nc(N2CC[C@@H](F)[C@@H](N)C2)n1` [Example 83, 5-[(2R,6S)-2-methyl-6-[[4-[6-methyl-2-[(3S,4R)-3-amino-4-fluoro-1-piperidyl]-pyrimidin-4-yl]piperazin-1-yl]methyl]morpholin-4-yl]quinoline-8-carbonitrile] here?
Answer: 32 nM

Question: Which IC50 does the source give for `Cc1cc(N2CCN(C[C@H]3CN(c4ccc(C#N)c5ncccc45)C[C@@H](C)O3)CC2)nc(N2CCC(N)C(F)(F)C2)n1` (stereo partly drawn) [Example 86, 5-[(2S,6R)-2-[[4-[2-(4-amino-3,3-difluoro-1-piperidyl)-6-methyl-pyrimidin-4-yl]piperazin-1-yl]methyl]-6-methyl-morpholin-4-yl]quinoline-8-carbonitrile] here?
Answer: 22 nM

Question: How did the IC50 turn out when `Cc1cc(N2CCN(C[C@H]3CN(c4ccc(C#N)c5ncccc45)C[C@@H](C)O3)CC2)nc(N2CC(N)C2)n1` [Example 87, 5-[(2S,6R)-2-[[4-[2-(3-aminoazetidin-1-yl)-6-methyl-pyrimidin-4-yl]piperazin-1-yl]methyl]-6-methyl-morpholin-4-yl]quinoline-8-carbonitrile] was run?
Answer: 8 nM

Question: Which IC50 does the source give for `C[C@@H]1CN(c2ccc(C#N)c3ncccc23)C[C@H](CN2CCN(c3ccccc3C3CNCCO3)CC2)O1` (stereo partly drawn) [Example 89, 5-[(2R,6S)-2-methyl-6-[[4-(2-morpholin-2-ylphenyl)piperazin-1-yl]methyl]morpholin-4-yl]quinoline-8-carbonitrile] here?
Answer: 6 nM
